Each block holds one compound with its values, some of them ahead of it.
What was measured:
PI3Kα (PIK3CA/PIK3R1) = PI3Kα (PIK3CA/PIK3R1) (Homo sapiens, UniProt P42336); test: LanthaScreen Eu kinase binding assay PI3Kα; conditions: for activity in words, biochemical and cell-based assays: both in the biochemical and cell-based assays (Table 1)
mTOR (FRAP1) = mTOR (FRAP1) (Homo sapiens, UniProt P42345); test: LanthaScreen Eu kinase binding assay mTOR; conditions: read-out: Kinase assay IC50 mTOR
PDK1 = biological target: T1, PDK1 (Homo sapiens, UniProt O15530); test: Z'-LYTE kinase activity assay PDK1; format: biochemical; conditions: read-out: Kinase assay IC50 PDK1, ATP at Km
T1 sequence (O15530 1-556): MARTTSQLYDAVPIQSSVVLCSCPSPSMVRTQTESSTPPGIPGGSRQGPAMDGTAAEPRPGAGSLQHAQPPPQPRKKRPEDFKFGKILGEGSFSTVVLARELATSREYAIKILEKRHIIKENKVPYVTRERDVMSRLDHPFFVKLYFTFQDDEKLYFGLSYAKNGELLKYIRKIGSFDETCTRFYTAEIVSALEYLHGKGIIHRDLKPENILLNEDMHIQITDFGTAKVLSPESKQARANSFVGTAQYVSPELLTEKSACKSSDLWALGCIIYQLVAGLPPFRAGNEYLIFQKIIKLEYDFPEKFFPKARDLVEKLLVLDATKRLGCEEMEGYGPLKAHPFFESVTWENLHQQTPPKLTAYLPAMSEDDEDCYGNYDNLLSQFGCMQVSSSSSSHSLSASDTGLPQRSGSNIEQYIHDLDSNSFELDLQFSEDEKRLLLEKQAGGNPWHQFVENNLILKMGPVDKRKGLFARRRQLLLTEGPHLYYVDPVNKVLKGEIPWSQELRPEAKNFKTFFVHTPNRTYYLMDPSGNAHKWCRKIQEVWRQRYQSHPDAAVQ

[1] = tested on: Hela cervical carcinoma cells; test: Anti-proliferative assay; conditions: Homo sapiens, 72 h, read-out: Cell-based Assay GI50 Hela
PI-3Kα = PI-3Kα (Homo sapiens, UniProt P42336); test: SelectScreen Biochemical Kinase Profiling PI-3Kα; conditions: in vitro displacement assays against the PI3K isoforms
PRAS40 [pS183] = test: LanthaScreen cellular assay PRAS40 [pSer183]; conditions: HEK293E, 1 h, read-out: Cell-based Assay IC50 PRAS40 [pS183]
DNA-PK = DNA-PK (Homo sapiens, UniProt P78527); test: Selectivity panel, kinase inhibition; format: biochemical
U87 glioblastoma cells = test: 3D culture assay, U87 spheroids; format: cell-based, human; conditions: 10 µM every day, total of 6 days
314 protein kinases = test: Selectivity panel against 314 protein kinases; format: biochemical; conditions: 10 µM, preliminary selectivity panel

Sequence of PI3Kα (PIK3CA/PIK3R1) (P42336 whole entry): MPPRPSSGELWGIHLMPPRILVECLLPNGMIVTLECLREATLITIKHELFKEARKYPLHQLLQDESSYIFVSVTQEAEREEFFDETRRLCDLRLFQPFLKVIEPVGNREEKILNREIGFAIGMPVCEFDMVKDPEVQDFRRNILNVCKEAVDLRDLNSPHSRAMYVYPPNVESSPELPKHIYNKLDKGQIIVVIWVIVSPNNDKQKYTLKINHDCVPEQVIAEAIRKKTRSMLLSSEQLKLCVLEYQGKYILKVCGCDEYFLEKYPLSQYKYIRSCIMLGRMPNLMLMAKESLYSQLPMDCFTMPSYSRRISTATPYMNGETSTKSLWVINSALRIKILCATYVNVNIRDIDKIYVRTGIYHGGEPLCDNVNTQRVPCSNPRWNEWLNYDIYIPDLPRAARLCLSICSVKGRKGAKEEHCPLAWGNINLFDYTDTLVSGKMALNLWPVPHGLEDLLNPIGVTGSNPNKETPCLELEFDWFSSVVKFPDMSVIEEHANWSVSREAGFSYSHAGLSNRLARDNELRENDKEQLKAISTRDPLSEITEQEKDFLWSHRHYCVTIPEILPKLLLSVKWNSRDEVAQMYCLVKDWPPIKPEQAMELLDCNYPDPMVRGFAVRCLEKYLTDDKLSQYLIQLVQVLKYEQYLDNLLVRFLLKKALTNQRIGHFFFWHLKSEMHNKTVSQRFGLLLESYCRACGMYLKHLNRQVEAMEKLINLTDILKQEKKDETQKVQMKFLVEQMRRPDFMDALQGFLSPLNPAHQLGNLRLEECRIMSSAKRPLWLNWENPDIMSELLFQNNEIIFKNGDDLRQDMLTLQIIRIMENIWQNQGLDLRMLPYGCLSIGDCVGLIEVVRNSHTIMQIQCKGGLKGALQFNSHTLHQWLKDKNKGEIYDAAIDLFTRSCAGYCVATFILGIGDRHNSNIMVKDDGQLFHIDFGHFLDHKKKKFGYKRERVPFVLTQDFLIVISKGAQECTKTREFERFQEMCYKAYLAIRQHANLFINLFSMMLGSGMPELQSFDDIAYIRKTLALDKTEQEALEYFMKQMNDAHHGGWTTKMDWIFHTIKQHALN
Sequence of PI3Kα (PIK3CA/PIK3R1) (P27986 whole entry partner): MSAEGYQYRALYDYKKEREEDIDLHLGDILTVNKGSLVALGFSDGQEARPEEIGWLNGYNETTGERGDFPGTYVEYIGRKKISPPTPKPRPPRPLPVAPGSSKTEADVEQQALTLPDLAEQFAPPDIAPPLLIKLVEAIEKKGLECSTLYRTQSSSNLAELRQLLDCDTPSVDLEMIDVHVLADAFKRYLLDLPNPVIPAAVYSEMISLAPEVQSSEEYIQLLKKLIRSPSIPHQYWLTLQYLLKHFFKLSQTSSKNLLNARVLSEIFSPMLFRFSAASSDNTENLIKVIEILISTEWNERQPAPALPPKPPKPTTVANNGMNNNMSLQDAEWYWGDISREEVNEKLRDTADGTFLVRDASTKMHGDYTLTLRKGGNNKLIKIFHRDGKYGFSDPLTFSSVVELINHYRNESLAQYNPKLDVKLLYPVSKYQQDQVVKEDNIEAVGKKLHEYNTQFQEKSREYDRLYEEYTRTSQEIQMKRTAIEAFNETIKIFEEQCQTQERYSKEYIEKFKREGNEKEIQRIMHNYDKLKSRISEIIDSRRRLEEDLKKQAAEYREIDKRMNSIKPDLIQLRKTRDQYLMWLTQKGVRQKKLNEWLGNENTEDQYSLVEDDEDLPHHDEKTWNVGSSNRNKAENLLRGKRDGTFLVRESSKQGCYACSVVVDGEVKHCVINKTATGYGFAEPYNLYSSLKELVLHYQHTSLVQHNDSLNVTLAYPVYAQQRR
Sequence of PI-3Kα (P42336 whole entry, canonical isoform): as the sequence (P42336 whole entry) above
Sequence of PI-3Kα (P27986 whole entry partner, canonical isoform): as the sequence (P27986 whole entry partner) above
Sequence of mTOR (FRAP1) (P42345 1360-2549 limits assumed): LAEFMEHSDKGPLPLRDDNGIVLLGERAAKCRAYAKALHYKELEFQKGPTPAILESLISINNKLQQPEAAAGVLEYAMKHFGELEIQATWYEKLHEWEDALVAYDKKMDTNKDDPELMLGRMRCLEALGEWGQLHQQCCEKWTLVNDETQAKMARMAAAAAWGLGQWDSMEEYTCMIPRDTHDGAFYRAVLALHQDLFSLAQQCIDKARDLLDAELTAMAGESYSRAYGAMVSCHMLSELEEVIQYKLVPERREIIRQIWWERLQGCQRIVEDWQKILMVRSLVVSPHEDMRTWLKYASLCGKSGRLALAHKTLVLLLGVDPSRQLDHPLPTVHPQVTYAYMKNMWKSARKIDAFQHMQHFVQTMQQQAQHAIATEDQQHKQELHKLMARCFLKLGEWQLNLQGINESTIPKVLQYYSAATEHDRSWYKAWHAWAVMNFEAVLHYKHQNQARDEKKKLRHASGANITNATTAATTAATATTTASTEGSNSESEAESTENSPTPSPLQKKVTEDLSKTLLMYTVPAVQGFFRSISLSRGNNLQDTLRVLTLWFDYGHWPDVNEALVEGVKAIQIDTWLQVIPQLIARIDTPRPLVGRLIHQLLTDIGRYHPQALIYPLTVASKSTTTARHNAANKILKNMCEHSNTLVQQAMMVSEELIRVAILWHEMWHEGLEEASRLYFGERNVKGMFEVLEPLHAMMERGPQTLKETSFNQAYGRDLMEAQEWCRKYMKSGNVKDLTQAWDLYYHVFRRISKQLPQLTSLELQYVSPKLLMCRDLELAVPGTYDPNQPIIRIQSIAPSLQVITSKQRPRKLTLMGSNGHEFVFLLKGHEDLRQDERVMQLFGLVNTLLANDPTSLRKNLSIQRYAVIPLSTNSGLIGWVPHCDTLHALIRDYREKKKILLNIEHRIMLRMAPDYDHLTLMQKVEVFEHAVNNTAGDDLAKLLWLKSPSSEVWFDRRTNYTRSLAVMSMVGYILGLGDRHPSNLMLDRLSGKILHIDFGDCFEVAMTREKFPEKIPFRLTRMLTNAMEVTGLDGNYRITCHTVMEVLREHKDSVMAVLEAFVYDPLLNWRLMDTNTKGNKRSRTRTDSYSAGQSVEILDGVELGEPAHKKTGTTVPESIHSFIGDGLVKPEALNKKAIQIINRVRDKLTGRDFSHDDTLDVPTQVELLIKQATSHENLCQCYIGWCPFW

Compound: 3-(pyridin-2-ylethynyl)-1H-pyrazolo[3,4-b]pyridine [Compound 21]
IC50 (PI3Kα (PIK3CA/PIK3R1); read-out: Kinase assay IC50 PI3Kα, LanthaScreen Eu kinase binding assay): 9 µM | IC50 (mTOR (FRAP1)): 5 µM | IC50 (PDK1): > 50 µM

Compound: Nc1ccc(C#Cc2n[nH]c3ccccc23)cc1 [Compound 6, 4-((1H-indazol-3-yl)ethynyl)aniline]
GI50 [1]: 3.6 µM | selectivity for α isoform over the β and γ isoforms (PI-3Kα): about 100 fold | IC50 (AKT [pT308]): 17.1 µM

Compound: C(#Cc1n[nH]c2ccccc12)c1ccccc1 [Compound 7, 3-(phenylethynyl)-1H-indazole]
PI3Kα activity in words (PI3Kα (PIK3CA/PIK3R1)): poor activity | IC50 (AKT [pT308]): > 100 µM

Compound: Fc1cc(F)cc(C#Cc2n[nH]c3ccccc23)c1 [Compound 8, 3-((3,5-difluorophenyl)ethynyl)-1H-indazole]
IC50 (PRAS40 [pS183]): > 200 µM | PI3Kα activity in words (PI3Kα (PIK3CA/PIK3R1)): poor activity | IC50 (AKT [pT308]): > 100 µM

inhibition at 10 µM (DNA-PK): > 50%
Compound: C(#Cc1n[nH]c2ccccc12)c1ccncc1 [Compound 10, 3-(pyridin-4-ylethynyl)-1H-indazole]
U87 spheroid cell growth/proliferation (spheroid volumes) (U87 glioblastoma cells): strongly suppressed cell growth/proliferation | share of 314 protein kinases showing ≥ 50% inhibition (314 protein kinases): less than 10%

Compound: CN(C)CC#Cc1n[nH]c2ccccc12 [Compound 11, 3-(1H-indazol-3-yl)-N,N-dimethylprop-2-yn-1-amine]
activity in words, biochemical and cell-based assays (PI3Kα (PIK3CA/PIK3R1)): inactive | IC50 (AKT [pT308]): > 100 µM

Compound: C(#Cc1n[nH]c2ccccc12)c1ccccn1 [Compound 12, 3-(pyridin-2-ylethynyl)-1H-indazole]
IC50 (AKT [pT308]): > 100 µM

Compound: C(#CC1CCCC1)c1n[nH]c2ccccc12 [Compound 14, 3-(cyclopentylethynyl)-1H-indazol]
activity in words, biochemical and cell-based assays (PI3Kα (PIK3CA/PIK3R1)): inactive | IC50 (AKT [pT308]): > 50 µM

Compound: C(#CC1CC1)c1n[nH]c2ccccc12 [Compound 15, 3-(cyclopropylethynyl)-1H-indazole]
activity in words, biochemical and cell-based assays (PI3Kα (PIK3CA/PIK3R1)): inactive | IC50 (AKT [pT308]): > 50 µM

Compound: Nc1ccccc1C#Cc1n[nH]c2ccccc12 [Compound 16, 2-((1H-indazol-3-yl)ethynyl)aniline]
IC50 (AKT [pT308]): > 100 µM

Compound: FC(F)(F)c1cc(C#Cc2n[nH]c3ccccc23)cc(C(F)(F)F)c1 [Compound 17, 3-((3,5-bis(trifluoromethyl)phenyl)ethynyl)-1H-indazole]
PI3Kα activity in words (PI3Kα (PIK3CA/PIK3R1)): poor activity | IC50 (AKT [pT308]): > 100 µM

Compound: C(#Cc1n[nH]c2ccccc12)c1ccsc1 [Compound 18, 3-(thiophen-3-ylethynyl)-1H-indazole]
PI3Kα activity in words (PI3Kα (PIK3CA/PIK3R1)): poor activity | IC50 (AKT [pT308]): > 100 µM

Compound: N#Cc1ccc(C#Cc2n[nH]c3ccccc23)cc1 [Compound 19, 4-((1H-indazol-3-yl)ethynyl)benzonitrile]
PI3Kα activity in words (PI3Kα (PIK3CA/PIK3R1)): poor activity | IC50 (AKT [pT308]): > 50 µM

loss of PI3Kα activity versus compound 10 (PI3Kα (PIK3CA/PIK3R1); pyrazolopyridine analog compared with indazole 10): 10 fold
Compound: C(#Cc1n[nH]c2ncccc12)c1ccncc1 [Compound 20, 3-(pyridin-4-ylethynyl)-1H-pyrazolo[3,4-b]pyridine]
